Reference: ChEMBL document CHEMBL4043139, “Fluoro and pentafluorothio analogs of the antitumoral curcuminoid EF24 with superior antiangiogenic and vascular-disruptive effects” (Bioorg Med Chem, 2017)
The source made the active and inactive calls. No cut-off for these calls is given here.

Assays:
[1] = system: Gallus gallus; assay: Vascular disruptive activity in 6 days post fertilized chicken egg chorioallantoic/vitelline membrane assessed as degradation of blood vessels at 10 nmol administered topically measured after 6 hrs by stereo-microscopic analysis; format: functional
[2] = system: 518A2; assay: Cytotoxicity against human 518A2 cells after 72 hrs by MTT assay; format: functional, cell-based
[3] = system: HT-29; assay: Cytotoxicity against human HT-29 cells after 72 hrs by MTT assay; format: functional, cell-based
[4] = system: HCT-116; assay: Cytotoxicity against human HCT116 cells after 72 hrs by MTT assay; format: functional, cell-based
[5] = system: DLD-1; assay: Cytotoxicity against human DLD1 cells after 72 hrs by MTT assay; format: functional, cell-based
[6] = system: PANC-1; assay: Cytotoxicity against human PANC1 cells after 72 hrs by MTT assay; format: functional, cell-based
[7] = (§1) Cytotoxicity against human KB-V1/Vbl cells after 72 hrs by MTT assay; format: functional, cell-based
[8] = system: KB-V1/Vbl; assay: as §1; format: functional, cell-based
[9] = (§2) Cytotoxicity against human MCF7/Topo cells after 72 hrs by MTT assay; format: functional, cell-based
[10] = system: MCF7/Topo; assay: as §2; format: functional, cell-based
[11] = (§3) Cytotoxicity against human U87 cells after 72 hrs by MTT assay; format: functional, cell-based, U-87MG ATCC; conditions: U-87 MG
[12] = system: U-87MG ATCC; assay: as §3; format: functional, cell-based
[13] = Cytotoxicity against HDFa after 72 hrs by MTT assay; format: cell-based; conditions: Homo sapiens
[14] = system: HT-29; assay: Cell cycle arrest in human HT-29 cells assessed as accumulation at sub-G1 phase at 1 uM after 24 hrs by propidium iodide staining based flow cytometric analysis (reference value: 0.9 +/- 0.1%); format: functional
[15] = system: HT-29; assay: Cell cycle arrest in human HT-29 cells assessed as accumulation at sub-G1 phase at 2.5 uM after 24 hrs by propidium iodide staining based flow cytometric analysis (reference value: 0.9 +/- 0.1%); format: functional
[16] = system: HT-29; assay: Cell cycle arrest in human HT-29 cells assessed as accumulation at sub-G1 phase at 5 uM after 24 hrs by propidium iodide staining based flow cytometric analysis (reference value: 0.9 +/- 0.1%); format: functional
[17] = system: HT-29; assay: Cell cycle arrest in human HT-29 cells assessed as accumulation at G1 phase at 1 uM after 24 hrs by propidium iodide staining based flow cytometric analysis (reference value: 68 +/- 0.9%); format: functional
[18] = system: HT-29; assay: Cell cycle arrest in human HT-29 cells assessed as accumulation at G1 phase at 2.5 uM after 24 hrs by propidium iodide staining based flow cytometric analysis (reference value: 68 +/- 0.9%); format: functional
[19] = system: HT-29; assay: Cell cycle arrest in human HT-29 cells assessed as accumulation at G1 phase at 5 uM after 24 hrs by propidium iodide staining based flow cytometric analysis (reference value: 68 +/- 0.9%); format: functional
[20] = system: HT-29; assay: Cell cycle arrest in human HT-29 cells assessed as accumulation at S phase at 1 uM after 24 hrs by propidium iodide staining based flow cytometric analysis (reference value: 15.6 +/- 0.3%); format: functional
[21] = system: HT-29; assay: Cell cycle arrest in human HT-29 cells assessed as accumulation at S phase at 2.5 uM after 24 hrs by propidium iodide staining based flow cytometric analysis (reference value: 15.6 +/- 0.3%); format: functional
[22] = system: HT-29; assay: Cell cycle arrest in human HT-29 cells assessed as accumulation at S phase at 5 uM after 24 hrs by propidium iodide staining based flow cytometric analysis (reference value: 15.6 +/- 0.3%); format: functional
[23] = system: HT-29; assay: Cell cycle arrest in human HT-29 cells assessed as accumulation at G2/M phase at 1 uM after 24 hrs by propidium iodide staining based flow cytometric analysis (reference value: 15.5 +/- 0.5%); format: functional
[24] = system: HT-29; assay: Cell cycle arrest in human HT-29 cells assessed as accumulation at G2/M phase at 2.5 uM after 24 hrs by propidium iodide staining based flow cytometric analysis (reference value: 15.5 +/- 0.5%); format: functional
[25] = system: HT-29; assay: Cell cycle arrest in human HT-29 cells assessed as accumulation at G2/M phase at 5 uM after 24 hrs by propidium iodide staining based flow cytometric analysis (reference value: 15.5 +/- 0.5%); format: functional
[26] = system: HT-29; assay: Upregulation of cyclin B1 expression in human HT-29 cells at 0.5 to 0.75 uM after 24 hrs by Western blot analysis; format: functional, cell-based
[27] = species: Homo sapiens; assay: Inhibition of NF-kappaB in human 518A2 cells assessed as reduction in p65 subunit expression at 0.5 to 1 uM after 24 hrs by Western blot analysis; format: cell-based
[28] = system: 518A2; assay: Anti-migratory activity in human 518A2 cells assessed as wound closure at 250 nM after 24 hrs by light microscopic analysis; format: functional, cell-based
[29] = system: 518A2; assay: Anti-migratory activity in human 518A2 cells assessed as wound closure at 250 nM after 48 hrs by light microscopic analysis (reference value: 100%); format: functional
[30] = species: Danio rerio; assay: Antiangiogenic activity in 72 hrs post fertilized zebra fish embryo harboring fli1a:EGFP assessed as area of subintestinal veins at 10 uM after 48 hrs by fluorescence microscopic analysis (reference value: 100%); format: functional
[31] = Toxicity in 6 days post fertilized chicken egg chorioallantoic/vitelline membrane assessed as irritation of chorioallantoic/vitelline membrane at 10 nmol administered topically measured after 24 hrs; design: species or system Gallus gallus; conditions: in vivo, topical_or_ocular
[32] = system: Gallus gallus; assay: Vascular disruptive activity in 6 days post fertilized chicken egg assessed as area covered by blood vessels at 10 nmol administered topically measured after 6 hrs by light microscopic analysis relative to control; format: functional
[33] = system: U-87MG ATCC; assay: Anti-vasculogenic activity in human U87 cells assessed as reduction in formation of cord-like structures at 1 uM after 24 hrs by matrigel based light microscopic analysis; format: functional, cell-based
[34] = system: U-87MG ATCC; assay: Anti-vasculogenic activity in human U87 cells assessed as reduction in formation of blood-vessel like tubular structures at 1 uM after 24 hrs by matrigel based light microscopic analysis; format: functional, cell-based
[35] = system: U-87MG ATCC; assay: Anti-vasculogenic activity in human U87 cells assessed as reduction in formation of small stray colonies at 1 uM after 24 hrs by matrigel based light microscopic analysis; format: functional, cell-based
[36] = Cytotoxicity against human U87 cells assessed as cell viability at 10 nmol after 24 hrs by MTT assay relative to control; format: cell-based, U-87MG ATCC; conditions: read-out: Activity

In the case of CCN1C/C(=C\c2ccc(S(F)(F)(F)(F)F)cc2)C(=O)/C(=C/c2ccc(S(F)(F)(F)(F)F)cc2)C1, the Activity [1] is reported as “Active”, the Activity [2] is reported as “Dose-dependent effect” and the IC50 ([2]; 518A2, 72 h) is reported as 990 nM. The Activity [3] was “Dose-dependent effect”, the IC50 ([3]; HT-29, 72 h) was 290 nM and the Activity [4] was “Dose-dependent effect”. The IC50 ([4]; HCT-116, 72 h) was 240 nM, the Activity [5] was “Dose-dependent effect” and the IC50 ([5]; DLD-1, 72 h) was 330 nM. The Activity [6] was “Dose-dependent effect”, the IC50 ([6]; PANC-1, 72 h) was 1100 nM and the IC50 [7] was 640 nM. For the same compound, the Activity [8] was “Dose-dependent effect”, the IC50 [9] was 400 nM and the Activity [10] was “Dose-dependent effect”. For the same compound, the IC50 [11] was 930 nM, the Activity [12] was “Dose-dependent effect” and the IC50 [13] was 3200 nM. For the same compound, the Activity [14] was 13.2%, the Activity [15] was 12.8% and the Activity [16] was 16.6%. It also gave an Activity [17] of 46.7%, an Activity [18] of 43.1% and an Activity [19] of 35.9%. The Activity [20] was 8.1%, the Activity [21] was 12% and the Activity [22] was 16.5%. The Activity [23] was 32.1%, the Activity [24] was 32.1% and the Activity [25] was 31%. For the same compound, the Activity [26] was “Active”, the inhibition [27] was “Active” and the Activity [28] was “Active”. The Activity [29] was 77%, the Activity [30] was 51% and the Activity [31] was “Toxic”. For the same compound, the Activity [32] was 67%, the Activity [33] was “inactive” and the Activity [34] was “inactive”. For the same compound, the Activity [35] was “inactive” and the viability at 24 h, 10 nmol [36] was greater than 85%.
